Source: patent US12427187B2, “Glucose-responsive insulin conjugates” (priority 2019, dated 2025)
Read-outs that look alike come from different tables or passages of the source.

Target: T1, Human macrophage mannose receptor 1 (MRC1) (Homo sapiens, UniProt P22897)
T1 sequence (P22897 19-1456): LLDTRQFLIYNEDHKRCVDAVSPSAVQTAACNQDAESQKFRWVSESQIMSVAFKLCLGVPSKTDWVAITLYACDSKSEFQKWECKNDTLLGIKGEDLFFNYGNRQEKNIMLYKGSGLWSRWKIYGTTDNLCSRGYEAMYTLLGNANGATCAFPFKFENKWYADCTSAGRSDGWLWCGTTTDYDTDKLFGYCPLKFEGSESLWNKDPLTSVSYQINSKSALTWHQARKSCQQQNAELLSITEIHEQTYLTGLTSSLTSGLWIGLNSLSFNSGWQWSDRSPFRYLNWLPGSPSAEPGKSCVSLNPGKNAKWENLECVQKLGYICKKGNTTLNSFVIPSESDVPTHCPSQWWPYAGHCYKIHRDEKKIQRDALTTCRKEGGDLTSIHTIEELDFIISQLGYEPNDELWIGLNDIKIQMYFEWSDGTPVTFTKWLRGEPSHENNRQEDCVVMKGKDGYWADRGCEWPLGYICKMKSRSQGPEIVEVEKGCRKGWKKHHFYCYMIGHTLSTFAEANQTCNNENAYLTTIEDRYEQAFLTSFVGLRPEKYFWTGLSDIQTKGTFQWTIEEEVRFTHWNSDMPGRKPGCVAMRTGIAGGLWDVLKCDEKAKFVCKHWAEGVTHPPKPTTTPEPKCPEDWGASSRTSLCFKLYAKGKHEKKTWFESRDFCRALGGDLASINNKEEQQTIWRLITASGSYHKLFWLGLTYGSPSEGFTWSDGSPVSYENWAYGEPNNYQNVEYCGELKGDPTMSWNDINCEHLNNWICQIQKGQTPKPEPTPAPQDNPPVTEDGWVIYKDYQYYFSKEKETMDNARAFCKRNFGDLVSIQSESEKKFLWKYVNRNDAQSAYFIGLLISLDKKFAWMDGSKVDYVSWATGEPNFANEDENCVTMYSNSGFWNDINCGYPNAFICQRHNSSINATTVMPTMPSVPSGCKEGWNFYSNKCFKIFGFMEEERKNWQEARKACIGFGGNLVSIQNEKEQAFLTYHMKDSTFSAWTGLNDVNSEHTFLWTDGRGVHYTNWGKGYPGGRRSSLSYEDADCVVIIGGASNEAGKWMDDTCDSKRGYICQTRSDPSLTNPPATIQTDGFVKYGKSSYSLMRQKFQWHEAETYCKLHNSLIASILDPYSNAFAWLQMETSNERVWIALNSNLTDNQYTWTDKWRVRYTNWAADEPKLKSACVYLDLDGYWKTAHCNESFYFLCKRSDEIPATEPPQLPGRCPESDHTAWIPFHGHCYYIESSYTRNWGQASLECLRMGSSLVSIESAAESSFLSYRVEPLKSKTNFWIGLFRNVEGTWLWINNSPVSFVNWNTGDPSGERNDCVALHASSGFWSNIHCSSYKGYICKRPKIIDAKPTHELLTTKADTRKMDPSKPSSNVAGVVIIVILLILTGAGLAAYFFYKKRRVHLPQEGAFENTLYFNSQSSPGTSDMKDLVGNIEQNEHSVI
Experiment: MRC1 competition binding assay with Eu-mannosylated-BSA
Conditions: IP = inflection point, read-out: MRC1 Binding IP

With `CC(=O)[C@H](CCCCN)NC(=O)CCCCC(=O)NCC(=O)N[C@@H](CCC(=O)N[C@@H](CCC(=O)NCCCCCC(=O)N(CCOC1O[C@H](CO)[C@@H](O)[C@H](O)[C@@H]1O)CCOC1O[C@H](CO)[C@@H](O)[C@H](O)[C@@H]1O)C(=O)NCCCCCC(=O)N(CCOC1O[C@H](CO)[C@@H](O)[C@H](O)[C@@H]1O)CCOC1O[C@H](CO)[C@@H](O)[C@H](O)[C@@H]1O)C(=O)NCCCCCC(=O)NCCO[C@H]1O[C@H](CO[C@H]2O[C@H](CO)[C@@H](O)[C@H](O)[C@@H]2O)[C@@H](O)[C@H](O[C@H]2O[C@H](CO)[C@@H](O)[C@H](O)[C@@H]2O)[C@@H]1O` (stereo partly shown) [IOC-38] the IC50 (Method F: 384-well plate) was 9.78 nM.
Work on `CC(=O)[C@H](CCCCN)NC(=O)CCCCC(=O)NCC(=O)N[C@@H](CCC(=O)N[C@@H](CCC(=O)NCCCCCC(=O)N(CCOC1O[C@H](CO)[C@@H](O)[C@H](O)[C@@H]1O)CCO[C@H]1O[C@H](CO)[C@@H](O)[C@H](O)[C@@H]1O)C(=O)NCCCCCC(=O)N(CCOC1O[C@H](CO)[C@@H](O)[C@H](O)[C@@H]1O)CCOC1O[C@H](CO)[C@@H](O)[C@H](O)[C@@H]1O)C(=O)NCCCCCC(=O)NCCO[C@H]1O[C@H](CO[C@H]2O[C@H](CO)[C@@H](O)[C@H](O)[C@@H]2O)[C@@H](O)[C@H](O[C@H]2O[C@H](CO)[C@@H](O)[C@H](O)[C@@H]2O)[C@@H]1O` (stereo partly shown) [IOC-27] yielded an IC50 (Method F: 384-well plate) of 20.7 nM.
`CC(=O)[C@H](CCCCN)NC(=O)CCCCC(=O)N[C@@H](CCC(=O)N[C@@H](CCC(=O)NCCO[C@@H]1O[C@@H](C)[C@@H](O)[C@@H](O)[C@@H]1O)C(=O)NCCO[C@@H]1O[C@@H](C)[C@@H](O)[C@@H](O)[C@@H]1O)C(=O)NCCO[C@H]1O[C@H](CO[C@H]2O[C@H](CO)[C@@H](O)[C@H](O)[C@@H]2O)[C@@H](O)[C@H](O[C@H]2O[C@H](CO)[C@@H](O)[C@H](O)[C@@H]2O)[C@@H]1O` [IOC-3] was tested, and the IC50 (Method E: 96-well plate) was 42.2 nM.
With `CC(=O)[C@H](CCCCN)NC(=O)CCCCC(=O)N[C@@H](CCC(=O)NCCCC[C@@H](C(=O)NCCO[C@H]1O[C@H](CO)[C@@H](O)[C@H](O)[C@@H]1O)N(CC(=O)NCCO[C@H]1O[C@H](CO)[C@@H](O)[C@H](O)[C@@H]1O)CC(=O)NCCO[C@H]1O[C@H](CO)[C@@H](O)[C@H](O)[C@@H]1O)C(=O)N[C@@H](CCC(=O)NCCCC[C@@H](C(=O)NCCO[C@H]1O[C@H](CO)[C@@H](O)[C@H](O)[C@@H]1O)N(CC(=O)NCCO[C@H]1O[C@H](CO)[C@@H](O)[C@H](O)[C@@H]1O)CC(=O)NCCO[C@H]1O[C@H](CO)[C@@H](O)[C@H](O)[C@@H]1O)C(=O)N[C@@H](CC(C)C)C(=O)NCCCC[C@@H](C(=O)NCCO[C@H]1O[C@H](CO)[C@@H](O)[C@H](O)[C@@H]1O)N(CC(=O)NCCO[C@H]1O[C@H](CO)[C@@H](O)[C@H](O)[C@@H]1O)CC(=O)NCCO[C@H]1O[C@H](CO)[C@@H](O)[C@H](O)[C@@H]1O` [IOC-56] the IC50 (Method E: 96-well plate) was 30.9 nM.
Work on `CC(=O)[C@H](CCCCN)NC(=O)CCCCCNC(=O)[C@H](CCCCNC(=O)[C@H](CCCCNC(=O)CCCCCNC(=O)CN(CC(=O)NCCO[C@H]1O[C@H](CO)[C@@H](O)[C@H](O)[C@@H]1O)CC(=O)NCCO[C@H]1O[C@H](CO)[C@@H](O)[C@H](O)[C@@H]1O)NC(=O)CN(CC(=O)NCCO[C@H]1O[C@H](CO)[C@@H](O)[C@H](O)[C@@H]1O)CC(=O)NCCO[C@H]1O[C@H](CO)[C@@H](O)[C@H](O)[C@@H]1O)NC(=O)CN(CC(=O)NCCO[C@@H]1O[C@@H](C)[C@@H](O)[C@@H](O)[C@@H]1O)CC(=O)NCCO[C@@H]1O[C@@H](C)[C@@H](O)[C@@H](O)[C@@H]1O` [IOC-46] yielded an IC50 (Method F: 384-well plate) of 58.3 nM.
`CC(=O)[C@H](CCCCN)NC(=O)CCCCC(=O)N[C@@H](CCC(=O)N[C@@H](CCC(=O)N[C@@H](CCC(=O)N[C@@H](CCC(=O)N[C@@H](CCC(=O)NCCO[C@@H]1O[C@@H](C)[C@@H](O)[C@@H](O)[C@@H]1O)C(=O)NCCO[C@@H]1O[C@@H](C)[C@@H](O)[C@@H](O)[C@@H]1O)C(=O)NCCO[C@@H]1O[C@@H](C)[C@@H](O)[C@@H](O)[C@@H]1O)C(=O)NCCO[C@@H]1O[C@@H](C)[C@@H](O)[C@@H](O)[C@@H]1O)C(=O)NCCO[C@@H]1O[C@@H](C)[C@@H](O)[C@@H](O)[C@@H]1O)C(=O)NCCO[C@@H]1O[C@@H](C)[C@@H](O)[C@@H](O)[C@@H]1O` [IOC-54] was tested, and the IC50 (Method F: 384-well plate) was 8.91 nM.
`CC(=O)[C@H](CCCCN)NC(=O)CCCCC(=O)NCC(=O)N[C@@H](CCC(=O)N[C@@H](CCC(=O)NCCCCCC(=O)N(CCOC1O[C@H](CO)[C@@H](O)[C@H](O)[C@@H]1O)CCO[C@H]1O[C@H](CO)[C@@H](O)[C@H](O)[C@@H]1O)C(=O)NCCCCCC(=O)N(CCOC1O[C@H](CO)[C@@H](O)[C@H](O)[C@@H]1O)CCOC1O[C@H](CO)[C@@H](O)[C@H](O)[C@@H]1O)C(=O)NCCCCCC(=O)NCCO[C@H]1O[C@H](CO[C@H]2O[C@H](CO)[C@@H](O)[C@H](O)[C@@H]2O)[C@@H](O)[C@H](O[C@H]2O[C@H](CO)[C@@H](O)[C@H](O)[C@@H]2O)[C@@H]1O` (stereo partly shown) [IOC-30] gave an IC50 (Method F: 384-well plate) of 37 nM.
`CC(=O)[C@H](CCCCN)NC(=O)CCCCCNC(=O)[C@H](CCCCNC(=O)[C@H](CCCCNC(=O)[C@H](CCCCNC(=O)[C@H](CCCCNC(=O)CCCCCCNC(=O)CN(CC(=O)NCCO[C@H]1O[C@H](CO)[C@@H](O)[C@H](O)[C@@H]1O)CC(=O)NCCO[C@H]1O[C@H](CO)[C@@H](O)[C@H](O)[C@@H]1O)NC(=O)CN(CC(=O)NCCO[C@H]1O[C@H](CO)[C@@H](O)[C@H](O)[C@@H]1O)CC(=O)NCCO[C@H]1O[C@H](CO)[C@@H](O)[C@H](O)[C@@H]1O)NC(=O)CN(CC(=O)NCCO[C@H]1O[C@H](O)[C@@H](O)[C@H](O)[C@@H]1O)CC(=O)NCCO[C@H]1O[C@H](CO)[C@@H](O)[C@H](O)[C@@H]1O)NC(=O)CN(CC(=O)NCCO[C@H]1O[C@H](CO)[C@@H](O)[C@H](O)[C@@H]1O)CC(=O)NCCO[C@H]1O[C@H](CO)[C@@H](O)[C@H](O)[C@@H]1O)NC(=O)CN(CC(=O)NCCO[C@H]1O[C@H](CO)[C@@H](O)[C@H](O)[C@@H]1O)CC(=O)NCCO[C@H]1O[C@H](CO)[C@@H](O)[C@H](O)[C@@H]1O` [IOC-60] gave an IC50 (Method F: 384-well plate) of 86.4 nM.
`CC(=O)[C@H](CCCCN)NC(=O)CCCCCNC(=O)[C@H](CCCCNC(=O)CCCCCNC(=O)CCCCCNC(=O)CN(CC(=O)NCCO[C@H]1O[C@H](CO)[C@@H](O)[C@H](O)[C@@H]1O)CC(=O)NCCO[C@H]1O[C@H](CO)[C@@H](O)[C@H](O)[C@@H]1O)NC(=O)[C@H](CCCCNC(=O)CCCCCNC(=O)CN(CC(=O)NCCO[C@H]1O[C@H](CO)[C@@H](O)[C@H](O)[C@@H]1O)CC(=O)NCCO[C@H]1O[C@H](CO)[C@@H](O)[C@H](O)[C@@H]1O)NC(=O)CCCCCNC(=O)CN(CC(=O)NCCO[C@H]1O[C@H](CO)[C@@H](O)[C@H](O)[C@@H]1O)CC(=O)NCCO[C@H]1O[C@H](CO)[C@@H](O)[C@H](O)[C@@H]1O` [IOC-52] was tested, and the IC50 (Method F: 384-well plate) was 49.1 nM.
Work on `CC(=O)[C@H](CCCCN)NC(=O)CCCCC(=O)N[C@@H](CCC(=O)N[C@@H](CCC(=O)N[C@@H](CCC(=O)NCCCCCC(=O)NCCO[C@H]1O[C@H](CO[C@H]2O[C@H](CO)[C@@H](O)[C@H](O)[C@@H]2O)[C@@H](O)[C@H](O[C@H]2O[C@H](CO)[C@@H](O)[C@H](O)[C@@H]2O)[C@@H]1O)C(=O)NCCCCCC(=O)NCCO[C@H]1O[C@H](CO[C@H]2O[C@H](CO)[C@@H](O)[C@H](O)[C@@H]2O)[C@@H](O)[C@H](O[C@H]2O[C@H](CO)[C@@H](O)[C@H](O)[C@@H]2O)[C@@H]1O)C(=O)NCCCCCC(=O)NCCO[C@H]1O[C@H](CO[C@H]2O[C@H](CO)[C@@H](O)[C@H](O)[C@@H]2O)[C@@H](O)[C@H](O[C@H]2O[C@H](CO)[C@@H](O)[C@H](O)[C@@H]2O)[C@@H]1O)C(=O)NCCCCCC(=O)NCCO[C@H]1O[C@H](CO[C@H]2O[C@H](CO)[C@@H](O)[C@H](O)[C@@H]2O)[C@@H](O)[C@H](O[C@H]2O[C@H](CO)[C@@H](O)[C@H](O)[C@@H]2O)[C@@H]1O` [IOC-24] yielded an IC50 (Method E: 96-well plate) of 3.32 nM.
